Numbers after ± are expanded uncertainties.
What was measured:
[1] = for molar entropy: 101.33 kPa, Small (less than 1 g) adiabatic calorimetry
[2] = Molar enthalpy of transition or fusion; conditions: Crystal; Adiabatic calorimetry

With CC(C)(C)c1ccc(Oc2ccc([N+](=O)[O-])cc2)cc1 [1-(tert-butyl)-4-(4-nitrophenoxy)benzene] the molar entropy ([1]; 5 K, Crystal) was 0.4639 ± 0.083 J/K/mol, the molar entropy ([1]; 10 K, Crystal) was 3.11 ± 0.51 J/K/mol and the molar entropy ([1]; 15 K, Crystal) was 7.882 ± 0.76 J/K/mol. For the same compound, the molar entropy ([1]; 20 K, Crystal) was 14.05 ± 1.5 J/K/mol, the molar entropy ([1]; 25 K, Crystal) was 21.04 ± 0.83 J/K/mol and the molar entropy ([1]; 30 K, Crystal) was 28.52 ± 1 J/K/mol. The molar entropy ([1]; 35 K, Crystal) was 36.25 ± 1.2 J/K/mol, the molar entropy ([1]; 40 K, Crystal) was 44.07 ± 1.7 J/K/mol and the molar entropy ([1]; 45 K, Crystal) was 51.97 ± 1.6 J/K/mol. It also gave a molar entropy ([1]; 50 K, Crystal) of 59.86 ± 1.8 J/K/mol, a molar entropy ([1]; 60 K, Crystal) of 75.08 ± 2.3 J/K/mol and a molar entropy ([1]; 70 K, Crystal) of 89.8 ± 2.8 J/K/mol. For the same compound, the molar entropy ([1]; 80 K, Crystal) was 104.1 ± 3.3 J/K/mol, the molar entropy ([1]; 90 K, Crystal) was 117.98 ± 1.9 J/K/mol and the molar entropy ([1]; 100 K, Crystal) was 131.7 ± 2.2 J/K/mol. It also gave a molar entropy ([1]; 110 K, Crystal) of 145.09 ± 2.4 J/K/mol, a molar entropy ([1]; 120 K, Crystal) of 158.31 ± 2.4 J/K/mol and a molar entropy ([1]; 130 K, Crystal) of 171.36 ± 2.7 J/K/mol. The molar entropy ([1]; 140 K, Crystal) was 184.17 ± 2.9 J/K/mol, the molar entropy ([1]; 150 K, Crystal) was 196.89 ± 3.2 J/K/mol and the molar entropy ([1]; 160 K, Crystal) was 209.52 ± 3.4 J/K/mol. For the same compound, the molar entropy ([1]; 170 K, Crystal) was 222 ± 3.4 J/K/mol, the molar entropy ([1]; 180 K, Crystal) was 234.38 ± 3.7 J/K/mol and the molar entropy ([1]; 190 K, Crystal) was 246.69 ± 3.9 J/K/mol. It also gave a molar entropy ([1]; 200 K, Crystal) of 259 ± 4 J/K/mol, a molar entropy ([1]; 210 K, Crystal) of 271.13 ± 4.2 J/K/mol and a molar entropy ([1]; 220 K, Crystal) of 283.27 ± 4.5 J/K/mol. It also gave a molar entropy ([1]; 230 K, Crystal) of 295.33 ± 4.7 J/K/mol, a molar entropy ([1]; 240 K, Crystal) of 307.47 ± 5 J/K/mol and a molar entropy ([1]; 250 K, Crystal) of 319.44 ± 5 J/K/mol. It also gave a molar entropy ([1]; 260 K, Crystal) of 331.5 ± 5.2 J/K/mol, a molar entropy ([1]; 270 K, Crystal) of 343.55 ± 5.2 J/K/mol and a molar entropy ([1]; 280 K, Crystal) of 355.53 ± 5.5 J/K/mol. It also gave a molar entropy ([1]; 290 K, Crystal) of 367.58 ± 5.7 J/K/mol, a molar entropy ([1]; 298.15 K, Crystal) of 377.39 ± 5.8 J/K/mol and a molar entropy ([1]; 300 K, Crystal) of 379.64 ± 6 J/K/mol. It also gave a molar entropy ([1]; 310 K, Crystal) of 391.78 ± 6.2 J/K/mol, a molar entropy ([1]; 320 K, Crystal) of 403.92 ± 6.3 J/K/mol and a molar entropy ([1]; 330 K, Crystal) of 416.14 ± 6.6 J/K/mol. For the same compound, the molar entropy ([1]; 334.8 K, Crystal) was 422.04 ± 6.6 J/K/mol, the molar entropy ([1]; 334.8 K, Liquid) was 482.07 ± 7.3 J/K/mol and the molar entropy ([1]; 340 K, Liquid) was 488.97 ± 7.6 J/K/mol. It also gave a molar entropy ([1]; 350 K, Liquid) of 502.03 ± 7.8 J/K/mol, a molar entropy ([1]; 360 K, Liquid) of 514.91 ± 8.1 J/K/mol and a molar entropy ([1]; 370 K, Liquid) of 527.55 ± 8.3 J/K/mol. The Triple point temperature ([1]; Crystal, Adiabatic calorimetry) was 334.8 ± 0.08 K, the Glass transition temperature ([1]; Glass, Adiabatic calorimetry) was -39.3 ± 0.2 °C and the “Molar enthalpy of transition or fusion” value [2] was 4.802 ± 0.0406 kcal/mol.
